One block for each compound: values may come before it.
How the values were obtained:
[1] = tested on: Hep3B2.1-7 human liver cancer cells; assay: CCK-8 proliferation inhibition, Hep3B2.1-7; assay type: cell-based; details: CCK-8 method; for inhibition at 10 µM / inhibition at 100 µM: Homo sapiens, Hep3B
Procedure, shortened: (§1)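 Inhibition rates were obtained by CCK-8 assay after treating cells with each compound at 100 μM or 10 μM.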

[2] = tested on: Jurkat E6-1 human T-cell lymphoma; assay: CCK-8 proliferation inhibition, Jurkat E6-1; assay type: cell-based; details: for inhibition at 10 µM / inhibition at 100 µM: Homo sapiens; for inhibition at 10 µM: Jurkat E6.1, 10 μM; for inhibition at 100 µM: Jurkat E6.1, 100 μM
Procedure, shortened: as §1

[3] = tested on: K562 human chronic myeloid leukemia cells; assay: CCK-8 proliferation inhibition, K562; assay type: cell-based; details: for inhibition at 10 µM / inhibition at 100 µM: Homo sapiens; for inhibition at 10 µM: K562, 10 μM; for inhibition at 100 µM: K562, 100 μM
Procedure, shortened: as §1

[4] = tested on: Colo320 human rectal cancer cells; assay: CCK-8 proliferation inhibition, Colo320; assay type: cell-based; details: CCK-8 method; for inhibition at 10 µM / inhibition at 100 µM: Homo sapiens, COLO 320
Procedure, shortened: as §1

[5] = tested on: MDA-MB-435s human breast cancer cells; assay: CCK-8 proliferation inhibition, MDA-MB-435s; assay type: cell-based; details: CCK-8 method; for inhibition at 10 µM / inhibition at 100 µM: Homo sapiens, MDA-MB-435S
Procedure, shortened: as §1

[6] = tested on: A549 human lung cancer cells; assay: CCK-8 proliferation inhibition, A549; assay type: cell-based; details: CCK-8 method; for inhibition at 10 µM / inhibition at 100 µM: Homo sapiens, A549
Procedure, shortened: as §1

[7] = tested on: Hut78 T-cell Leukemia cell; assay: CCK-8 proliferation inhibition, Hut78; assay type: cell-based; details: for inhibition at 10 µM / inhibition at 100 µM: Homo sapiens, read-out: Hut-78 (inhibition %); for inhibition at 10 µM: HuT78, 10 μM; for inhibition at 100 µM: HuT78, 100 μM
Procedure, shortened: as §1

histone deacetylase [8] = assay: in vitro inhibition of histone deacetylase by HDAC inhibitor screening kit (Biovision K340-100); assay type: biochemical
Experimental: An assay for determining the in vitro inhibition activity of the compound on histone deacetylase is conducted according to the specification of HDAC inhibitor screeing kid (Biovision Company/Catalog #K340-100). […]

[9] = tested on: PANC-1 human pancreatic cancer cells; assay: CCK-8 proliferation inhibition, PANC-1; assay type: cell-based; details: for inhibition at 10 µM / inhibition at 100 µM: Homo sapiens; for inhibition at 10 µM: PANC-1, 10 μM; for inhibition at 100 µM: PANC-1, 100 μM
Procedure, shortened: as §1

[10] = tested on: PC-3 human prostate cancer; assay: CCK-8 proliferation inhibition, PC-3; assay type: cell-based; details: CCK-8 method; for inhibition at 10 µM / inhibition at 100 µM: Homo sapiens
Procedure, shortened: as §1

[11] = tested on: A549 (human lung adenocarcinoma cells); assay: MTT cytotoxicity to tumor cell strains, A549; assay type: cell-based
Experimental: (§2) The cytotoxicity of samples to tumor cell strains is determined through MTT.

histone deacetylase [12] = assay: in vitro inhibition activity on histone deacetylase (rat liver homogenate, MAL fluorescent substrate); assay type: biochemical, rats; details: n = 4, 37° C., 16 hours
Experimental: A 96-well plate (black) for determining […] is made by Costar Company of U.S. The histone deacetylase is obtained by homogenization of liver of rats. The histone deacetylase reacts with small molecular fluorescent substrate MAL such that the substrate MAL is deacetylated to become ML.
The compound to be detected is dissolved with 200 μL of DMSO. The stock solution of the compound to be detected is diluted with PBS to a concentration of the working solution. The histone deacetylase, the MAL fluorescent substrate and the compound to be detected are mixed in a water bath at 37° C. and reacted 16 hours. The final concentration of the compound to be detected is: MS275 and its similar compound: 10, 100 μmol/.
The reaction solution is extracted with ethyl acetate. The extract is pumped in vacuum and thereto added 110 μL of methanol (40%). Taking 50 μL/well to a 96-well plate and making a fluorescent detection at 325/390 nm.
The negative control wherein histone deacetylase is not added to the reaction is 100% inhibition. The control that only contains histone deacetylase without any inhibitor is the background (0% inhibition). The inhibition rate of the sample to be detected=(the detected fluorescent value−the background)/(the fluorescent value of the negative control−background)×100%
The inhibition rate and the standard deviation in the results are the average inhibition percentage and the standard deviation of each parallel well in each dosage group.

[13] = tested on: K562: human chronic myeloid leukemia cell strain; assay: MTT cytotoxicity to tumor cell strains, K562; assay type: cell-based
Experimental: as §2

[14] = tested on: Hut 78 (T-cell Leukemia cell); assay: MTT cytotoxicity to tumor cell strains, Hut 78; assay type: cell-based; details: Hut 78, MTT
Experimental: as §2

- Inhibition rate(%) (histone deacetylase [8]; 3.91 μM): 14.0%
- Inhibition rate(%) (histone deacetylase [8]; 62.5 μM): 42.2%
- Inhibition rate(%) (histone deacetylase [8]; 2 mM): 85.0%
Compound: COc1ccc(COC(=O)NCc2ccc(C(=O)Nc3ccncc3N)cc2)cc1OC [V-96]
- inhibition at 10 µM ([1]; compound concentration 10 μM): -0.9%
- inhibition at 100 µM ([1]; compound concentration 100 μM): 35.2%
- inhibition at 10 µM [2]: 15.4%
- inhibition at 100 µM [2]: 83.4%
- inhibition at 10 µM [3]: 41.1%
- inhibition at 100 µM [3]: 61.6%
- inhibition at 10 µM ([4]; compound concentration 10 μM): -0.8%
- inhibition at 100 µM ([4]; compound concentration 100 μM): 27%
- inhibition at 10 µM ([5]; compound concentration 10 μM): 1.9%
- inhibition at 100 µM ([5]; compound concentration 100 μM): 69.6%
- inhibition at 10 µM ([6]; compound concentration 10 μM): -6.2%
- inhibition at 100 µM ([6]; compound concentration 100 μM): 33.4%
- inhibition at 10 µM [7]: -0.4%
- inhibition at 100 µM [7]: 41.7%
- inhibition at 10 µM [9]: -0.4%
- inhibition at 100 µM [9]: 64.8%
- inhibition at 10 µM ([10]; compound concentration 10 μM): 27.8%
- inhibition at 100 µM ([10]; compound concentration 100 μM): 53.3%

- inhibition rate % average number (histone deacetylase [12]; dosage 10 μmol/L): 46.547%
- inhibition rate % average number (histone deacetylase [12]; dosage 100 μmol/L): 70.300%
Compound: N-(2-amino-4-pyridyl)-4-[(2-naphthylmethoxyacyl)aminomethyl]benzamide [V-24]
- Hep3B (inhibition %) ([1]; compound concentration 10 μM): 24.8%
- Hep3B (inhibition %) ([1]; compound concentration 100 μM): 13.5%
- Jurkat E6-1 (inhibition %) ([2]; 10 μM): 37.2%
- Jurkat E6-1 (inhibition %) ([2]; 100 μM): 22.1%
- K562 (inhibition %) ([3]; 10 μM): 42.8%
- K562 (inhibition %) ([3]; 100 μM): 29.7%
- Cell activity (IC50, μg/ml) A549 [11]: 7.11 µg/mL
- Colo320 (inhibition %) ([4]; compound concentration 10 μM): −2.3%
- Colo320 (inhibition %) ([4]; compound concentration 100 μM): −17.1%
- 435s(inhibition %) ([5]; compound concentration 10 μM): 49.8%
- 435s(inhibition %) ([5]; compound concentration 100 μM): 50.4%
- A549 (inhibition %) ([6]; compound concentration 10 μM): 48.7%
- A549 (inhibition %) ([6]; compound concentration 100 μM): 65.7%
- Hut-78 (inhibition %) ([7]; 10 μM): 26.2%
- Hut-78 (inhibition %) ([7]; 100 μM): 20.7%
- Cell activity (IC50, μg/ml) K562 [13]: 6.23 µg/mL
- PANC-1 (inhibition %) ([9]; 10 μM): 8.0%
- PANC-1 (inhibition %) ([9]; 100 μM): 7.8%
- PC-3 (inhibition %) ([10]; compound concentration 10 μM): 5.1%
- PC-3 (inhibition %) ([10]; compound concentration 100 μM): 3.4%
- Cell activity (IC50, μg/ml) Hut 78 [14]: 0.30 µg/mL

Continued, compound first:

Compound: COc1ccc(/C=C/C(=O)NCc2ccc(C(=O)Nc3cccnc3N)cc2)cc1OC [V-93, N-(2-amino-3-pyridyl)-4-[(3,4-dimethoxycinnamoyl)aminomethyl]benzamide]
- inhibition at 10 µM ([1]; compound concentration 10 μM): 4.9%
- inhibition at 100 µM ([1]; compound concentration 100 μM): 26.8%
- inhibition at 10 µM [2]: 23.4%
- inhibition at 100 µM [2]: 93.1%
- inhibition at 10 µM [3]: 23.7%
- inhibition at 100 µM [3]: 67.3%
- inhibition at 10 µM ([4]; compound concentration 10 μM): 6.1%
- inhibition at 100 µM ([4]; compound concentration 100 μM): 13.1%
- inhibition at 10 µM ([5]; compound concentration 10 μM): 16.3%
- inhibition at 100 µM ([5]; compound concentration 100 μM): 48.5%
- inhibition at 10 µM ([6]; compound concentration 10 μM): -2.5%
- inhibition at 100 µM ([6]; compound concentration 100 μM): 3.4%
- inhibition at 10 µM [7]: 27.2%
- inhibition at 100 µM [7]: 64.7%
- Inhibition rate(%) (histone deacetylase [8]; 3.91 μM): 14.3%
- Inhibition rate(%) (histone deacetylase [8]; 62.5 μM): 48.0%
- Inhibition rate(%) (histone deacetylase [8]; 2 mM): 55.3%
- inhibition at 10 µM [9]: 9.8%
- inhibition at 100 µM [9]: 16.6%
- inhibition at 10 µM ([10]; compound concentration 10 μM): 41.6%
- inhibition at 100 µM ([10]; compound concentration 100 μM): 80.6%

Compound: COc1cccc(COC(=O)NCc2ccc(C(=O)Nc3ccncc3N)cc2)c1 [V-95]
- inhibition at 10 µM ([1]; compound concentration 10 μM): 16.7%
- inhibition at 100 µM ([1]; compound concentration 100 μM): 72%
- inhibition at 10 µM [2]: 21.6%
- inhibition at 100 µM [2]: 93.8%
- inhibition at 10 µM [3]: 50.6%
- inhibition at 100 µM [3]: 71.9%
- inhibition at 10 µM ([4]; compound concentration 10 μM): -1.9%
- inhibition at 100 µM ([4]; compound concentration 100 μM): 68.8%
- inhibition at 10 µM ([5]; compound concentration 10 μM): 4.2%
- inhibition at 100 µM ([5]; compound concentration 100 μM): 72.5%
- inhibition at 10 µM ([6]; compound concentration 10 μM): -12.6%
- inhibition at 100 µM ([6]; compound concentration 100 μM): 48.3%
- inhibition at 10 µM [7]: 8%
- inhibition at 100 µM [7]: 58%
- Inhibition rate(%) (histone deacetylase [8]; 3.91 μM): 17.2%
- Inhibition rate(%) (histone deacetylase [8]; 62.5 μM): 46.7%
- Inhibition rate(%) (histone deacetylase [8]; 2 mM): 90.6%
- inhibition at 10 µM [9]: 7%
- inhibition at 100 µM [9]: 48.7%
- inhibition at 10 µM ([10]; compound concentration 10 μM): 30.6%
- inhibition at 100 µM ([10]; compound concentration 100 μM): 80%

Compound: N-(2-amino-3-pyridyl)-4-[(4-methoxybenzyloxyacyl)aminomethyl]benzamide [V-11]
- Hep3B (inhibition %) ([1]; compound concentration 10 μM): 8.1%
- Hep3B (inhibition %) ([1]; compound concentration 100 μM): 53.2%
- Jurkat E6-1 (inhibition %) ([2]; 10 μM): 26.4%
- Jurkat E6-1 (inhibition %) ([2]; 100 μM): 91.0%
- K562 (inhibition %) ([3]; 10 μM): 29.7%
- K562 (inhibition %) ([3]; 100 μM): 82.6%
- Colo320 (inhibition %) ([4]; compound concentration 10 μM): 8.9%
- Colo320 (inhibition %) ([4]; compound concentration 100 μM): 48.5%
- 435s(inhibition %) ([5]; compound concentration 10 μM): −16.5%
- 435s(inhibition %) ([5]; compound concentration 100 μM): 85.4%
- A549 (inhibition %) ([6]; compound concentration 10 μM): −7.4%
- A549 (inhibition %) ([6]; compound concentration 100 μM): 24.9%
- Hut-78 (inhibition %) ([7]; 10 μM): 10.7%
- Hut-78 (inhibition %) ([7]; 100 μM): 60.3%
- Inhibition rate(%) (histone deacetylase [8]; 3.91 μM): 6.5%
- Inhibition rate(%) (histone deacetylase [8]; 62.5 μM): 22.1%
- Inhibition rate(%) (histone deacetylase [8]; 2 mM): 39.2%
- PANC-1 (inhibition %) ([9]; 10 μM): 1.1%
- PANC-1 (inhibition %) ([9]; 100 μM): 35.2%
- PC-3 (inhibition %) ([10]; compound concentration 10 μM): 8.1%
- PC-3 (inhibition %) ([10]; compound concentration 100 μM): 49.8%

Source: patent publication US8889876B2, “Histone deacetylase inhibitors and uses thereof” (Jiangsu Hengyi Pharmaceutical Co., Ltd., priority 2008, dated 2014)
